The results in this text go back to paper PMC9403976, “Elucidating the path to Plasmodium prolyl-tRNA synthetase inhibitors that overcome halofuginone resistance” (Nature Communications, 2022).

“And” between values parts separate entries of the source, which are not always exact repeats. Equal entries are not always repeated. Where two headings read alike, the source gives them in different places. Some results are limits rather than exact numbers.

The subject of one test is P. falciparum Dd2-2D4. Put plainly: P. falciparum asexual blood stage (ABS) growth assay, SYBR Green, 72 h, wild-type parasites. Type of test: cell-based, Plasmodium falciparum. Particulars: Plasmodium falciparum, DD2; SI Fig 16b; values on -log scale; read-out: ABS - Dd2-2D4 (converted).
Another test has as its target T1, PfcProRS (Plasmodium falciparum, UniProt Q8I5R7).
T1 construct: made in house; host or cells: E. coli SoluBL-21
Type of test: binding. The following applies: replicates 1-3.

A further test has as its target HsProRS (Homo sapiens, UniProt P07814). The test is described as follows: TR-FRET ligand displacement assay with tracer MAT379 (CoraFluor-1-Halo and anti-His6 antibody formats). The test is classed as binding. More on the design: made in house; host or cells: E. coli SoluBL-21. The following applies: for HsProRS % signal at 10 μM: no added proline/ATP (-). A general note: TR-FRET usually uses a lanthanide donor and a delayed reading to cut background.

Where [1] appears, read: read-out: HsProRS IC50 + 100 μM proline, + 100 μM proline.

T1 sequence (Q8I5R7 249-746): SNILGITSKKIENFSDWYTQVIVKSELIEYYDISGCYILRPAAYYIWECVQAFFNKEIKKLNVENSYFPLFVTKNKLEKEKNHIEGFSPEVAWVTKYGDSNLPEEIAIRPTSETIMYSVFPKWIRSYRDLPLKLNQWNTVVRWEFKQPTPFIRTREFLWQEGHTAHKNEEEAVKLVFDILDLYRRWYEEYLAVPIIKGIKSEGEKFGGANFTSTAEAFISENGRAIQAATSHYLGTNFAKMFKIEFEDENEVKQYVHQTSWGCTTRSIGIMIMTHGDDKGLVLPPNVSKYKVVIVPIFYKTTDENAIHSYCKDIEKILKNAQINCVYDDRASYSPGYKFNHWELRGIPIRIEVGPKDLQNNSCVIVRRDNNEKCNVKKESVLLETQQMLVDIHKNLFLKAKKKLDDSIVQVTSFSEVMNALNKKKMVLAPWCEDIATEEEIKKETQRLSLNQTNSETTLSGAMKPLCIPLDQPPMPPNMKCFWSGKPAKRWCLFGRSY
HsProRS, sequence (P07814 996-1512): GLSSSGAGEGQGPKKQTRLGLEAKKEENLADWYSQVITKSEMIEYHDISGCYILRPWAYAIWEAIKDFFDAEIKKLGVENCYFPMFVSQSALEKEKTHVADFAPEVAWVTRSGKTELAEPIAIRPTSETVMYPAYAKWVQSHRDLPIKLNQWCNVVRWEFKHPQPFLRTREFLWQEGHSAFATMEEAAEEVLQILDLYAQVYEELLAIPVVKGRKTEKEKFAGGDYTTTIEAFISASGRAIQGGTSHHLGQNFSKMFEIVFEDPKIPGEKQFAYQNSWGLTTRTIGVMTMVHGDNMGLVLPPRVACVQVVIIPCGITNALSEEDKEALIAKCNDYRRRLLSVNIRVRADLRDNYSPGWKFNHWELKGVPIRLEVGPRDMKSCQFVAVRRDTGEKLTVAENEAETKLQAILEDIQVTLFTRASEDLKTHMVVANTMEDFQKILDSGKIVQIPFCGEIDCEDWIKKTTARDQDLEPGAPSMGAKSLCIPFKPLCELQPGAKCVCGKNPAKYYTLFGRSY

For the compound `Nc1nccnc1C(=O)NC1CCCCC1` [compound 48], the EC50 in the test with P. falciparum Dd2-2D4 is 8.75 µM. Besides, the “Normalized response, dose-response replicates (SI Fig 14)” value (shortened to “Normalized response”) was 7.98E-01 and 9.64E-01 and 8.59E-01 at PfcProRS (Log[inhibitor] (M) -5.000); 1.00E+00 and 9.90E-01 and 9.60E-01 on PfcProRS (Log[inhibitor] (M) -5.301); 1.12E+00 and 9.39E-01 and 1.04E+00 at PfcProRS (Log[inhibitor] (M) -5.601); 1.09E+00 and 1.16E+00 and 9.71E-01 at PfcProRS (Log[inhibitor] (M) -5.904); 1.14E+00 and 9.41E-01 and 1.00E+00 at PfcProRS (Log[inhibitor] (M) -6.208); 1.15E+00 and 1.05E+00 and 9.08E-01 at PfcProRS (Log[inhibitor] (M) -6.509). Also, the “Normalized response” value at PfcProRS (Log[inhibitor] (M) -6.796) was 9.89E-01 and 9.81E-01 and 1.09E+00; at PfcProRS (Log[inhibitor] (M) -7.108) it was 9.93E-01 and 1.12E+00 and 9.45E-01; on PfcProRS (Log[inhibitor] (M) -7.409), 1.04E+00 and 1.09E+00 and 1.06E+00; at PfcProRS (Log[inhibitor] (M) -7.710), 1.09E+00 and 9.79E-01 and 1.07E+00; on PfcProRS (Log[inhibitor] (M) -8.000) it was 1.09E+00 and 1.00E+00 and 1.03E+00; on PfcProRS (Log[inhibitor] (M) -8.301), 1.08E+00 and 1.10E+00 and 1.07E+00. For the same compound, the “Normalized response” value on PfcProRS (Log[inhibitor] (M) -8.602) was 1.05E+00 and 1.09E+00 and 1.03E+00; at PfcProRS (Log[inhibitor] (M) -9.000), 1.01E+00 and 1.14E+00 and 9.74E-01; on PfcProRS (Log[inhibitor] (M) -9.301), 1.02E+00 and 1.01E+00 and 1.04E+00. The IC50 on HsProRS and on HsProRS (setting [1]) was greater than 10 µM each time. Besides, at HsProRS (+ 100 μM proline), the “HsProRS % signal at 10 μM, + 100 μM proline” value was determined as 87.4%. Further, the “HsProRS % signal at 10 μM” value on HsProRS worked out at 89.6%.
Turning to `O=C(NC1CCCCC1)c1nccnc1NC(=O)C1Cc2ccccc2C1` [compound 49], the EC50 in the test with P. falciparum Dd2-2D4 is 6.81 µM. In addition, the “Normalized response” value is 8.45E-01 and 8.81E-01 and 7.61E-01 on PfcProRS (Log[inhibitor] (M) -5.000); 9.54E-01 and 9.61E-01 and 9.77E-01 on PfcProRS (Log[inhibitor] (M) -5.301); 1.16E+00 and 9.36E-01 and 1.07E+00 at PfcProRS (Log[inhibitor] (M) -5.601); 8.95E-01 and 1.06E+00 and 1.02E+00 at PfcProRS (Log[inhibitor] (M) -5.904); 1.16E+00 and 9.70E-01 and 1.06E+00 at PfcProRS (Log[inhibitor] (M) -6.208); 1.04E+00 and 1.06E+00 and 1.11E+00 at PfcProRS (Log[inhibitor] (M) -6.509). The “Normalized response” value was 1.05E+00 and 9.78E-01 and 1.11E+00 at PfcProRS (Log[inhibitor] (M) -6.796); 1.04E+00 and 1.10E+00 and 1.05E+00 on PfcProRS (Log[inhibitor] (M) -7.108); 1.08E+00 and 9.76E-01 and 1.10E+00 at PfcProRS (Log[inhibitor] (M) -7.409); 9.25E-01 and 1.04E+00 and 1.10E+00 at PfcProRS (Log[inhibitor] (M) -7.710); 1.07E+00 and 1.04E+00 and 1.10E+00 at PfcProRS (Log[inhibitor] (M) -8.000); 9.50E-01 and 1.14E+00 and 9.21E-01 on PfcProRS (Log[inhibitor] (M) -8.301). The “Normalized response” value on PfcProRS (Log[inhibitor] (M) -8.602) is 9.83E-01 and 1.05E+00 and 9.81E-01; on PfcProRS (Log[inhibitor] (M) -9.000), 1.05E+00 and 1.09E+00 and 1.08E+00; at PfcProRS (Log[inhibitor] (M) -9.301), 1.08E+00 and 1.02E+00 and 9.82E-01. The 50% inhibitory concentration (IC50) on HsProRS and on HsProRS (setting [1]) was greater than 10 µM in each case. Also, at HsProRS (+ 100 μM proline), the “HsProRS % signal at 10 μM, + 100 μM proline” value amounted to 103%. The “HsProRS % signal at 10 μM” value on HsProRS is listed as 90.3%.
